Measurements as given in PMC4808398 (Cell, 2016).

Assays:
[1] = target: CASTOR1 homodimer-GATOR2 complex (Homo sapiens, UniProt Q8WTX7); type: binding
[2] = target: CASTOR1-CASTOR2 heterodimer-GATOR2 complex (Homo sapiens, UniProt Q8WTX7); type: binding

CASTOR1 homodimer-GATOR2 complex, sequence (Q8WTX7 whole entry): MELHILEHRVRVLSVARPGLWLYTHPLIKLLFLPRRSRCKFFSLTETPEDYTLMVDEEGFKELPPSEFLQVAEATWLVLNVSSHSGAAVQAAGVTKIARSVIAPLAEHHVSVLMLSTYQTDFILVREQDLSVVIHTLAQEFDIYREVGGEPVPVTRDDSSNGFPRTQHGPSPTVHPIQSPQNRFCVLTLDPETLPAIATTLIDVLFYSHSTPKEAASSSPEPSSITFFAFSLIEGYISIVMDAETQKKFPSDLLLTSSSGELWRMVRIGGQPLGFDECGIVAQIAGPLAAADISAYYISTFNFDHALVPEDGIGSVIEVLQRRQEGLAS
CASTOR1 homodimer-GATOR2 complex, sequence (Q9NXC5 whole entry partner): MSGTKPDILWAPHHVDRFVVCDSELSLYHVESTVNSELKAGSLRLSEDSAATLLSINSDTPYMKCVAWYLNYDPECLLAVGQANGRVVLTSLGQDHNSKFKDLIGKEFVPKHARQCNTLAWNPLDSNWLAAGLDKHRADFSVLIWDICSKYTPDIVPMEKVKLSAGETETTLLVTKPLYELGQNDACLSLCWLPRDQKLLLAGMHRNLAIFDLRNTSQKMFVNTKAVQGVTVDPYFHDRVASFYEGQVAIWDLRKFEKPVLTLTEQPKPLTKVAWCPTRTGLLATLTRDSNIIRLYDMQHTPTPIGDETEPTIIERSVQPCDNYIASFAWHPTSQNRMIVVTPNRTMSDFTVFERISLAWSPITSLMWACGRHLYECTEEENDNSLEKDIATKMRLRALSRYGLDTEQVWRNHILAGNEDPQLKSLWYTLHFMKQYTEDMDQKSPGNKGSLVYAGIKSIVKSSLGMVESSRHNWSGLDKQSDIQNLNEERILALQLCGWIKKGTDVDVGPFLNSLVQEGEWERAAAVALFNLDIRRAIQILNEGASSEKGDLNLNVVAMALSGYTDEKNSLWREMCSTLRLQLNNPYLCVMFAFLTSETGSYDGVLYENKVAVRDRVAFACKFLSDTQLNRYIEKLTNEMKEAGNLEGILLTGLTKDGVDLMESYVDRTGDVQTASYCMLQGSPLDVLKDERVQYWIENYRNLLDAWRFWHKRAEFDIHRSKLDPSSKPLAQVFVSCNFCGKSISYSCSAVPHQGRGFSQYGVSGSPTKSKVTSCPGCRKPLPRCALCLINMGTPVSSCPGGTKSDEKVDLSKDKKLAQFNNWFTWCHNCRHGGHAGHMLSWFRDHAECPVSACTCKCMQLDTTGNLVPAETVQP
CASTOR1 homodimer-GATOR2 complex, sequence (Q96S15 whole entry partner): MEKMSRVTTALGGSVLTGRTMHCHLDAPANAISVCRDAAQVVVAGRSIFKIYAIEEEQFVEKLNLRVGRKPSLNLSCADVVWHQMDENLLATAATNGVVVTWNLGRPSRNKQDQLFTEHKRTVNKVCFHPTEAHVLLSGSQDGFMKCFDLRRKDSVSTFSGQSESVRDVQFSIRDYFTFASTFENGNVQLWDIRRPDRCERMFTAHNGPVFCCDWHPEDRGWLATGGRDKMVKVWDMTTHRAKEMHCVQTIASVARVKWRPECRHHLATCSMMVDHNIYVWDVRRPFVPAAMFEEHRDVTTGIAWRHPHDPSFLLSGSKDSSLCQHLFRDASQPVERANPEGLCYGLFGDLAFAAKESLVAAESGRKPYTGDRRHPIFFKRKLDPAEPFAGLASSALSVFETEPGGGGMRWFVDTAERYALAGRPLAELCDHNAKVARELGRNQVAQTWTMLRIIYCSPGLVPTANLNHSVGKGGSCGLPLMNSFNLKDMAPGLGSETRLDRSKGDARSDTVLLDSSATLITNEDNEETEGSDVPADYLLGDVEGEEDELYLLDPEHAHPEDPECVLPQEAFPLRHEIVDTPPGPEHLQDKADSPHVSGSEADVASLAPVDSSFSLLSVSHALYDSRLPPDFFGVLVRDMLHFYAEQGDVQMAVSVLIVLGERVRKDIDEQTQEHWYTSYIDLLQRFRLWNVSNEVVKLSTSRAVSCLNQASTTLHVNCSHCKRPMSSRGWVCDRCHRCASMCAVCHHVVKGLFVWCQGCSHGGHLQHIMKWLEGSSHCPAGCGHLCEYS
CASTOR1 homodimer-GATOR2 complex, sequence (Q6PJI9 whole entry partner): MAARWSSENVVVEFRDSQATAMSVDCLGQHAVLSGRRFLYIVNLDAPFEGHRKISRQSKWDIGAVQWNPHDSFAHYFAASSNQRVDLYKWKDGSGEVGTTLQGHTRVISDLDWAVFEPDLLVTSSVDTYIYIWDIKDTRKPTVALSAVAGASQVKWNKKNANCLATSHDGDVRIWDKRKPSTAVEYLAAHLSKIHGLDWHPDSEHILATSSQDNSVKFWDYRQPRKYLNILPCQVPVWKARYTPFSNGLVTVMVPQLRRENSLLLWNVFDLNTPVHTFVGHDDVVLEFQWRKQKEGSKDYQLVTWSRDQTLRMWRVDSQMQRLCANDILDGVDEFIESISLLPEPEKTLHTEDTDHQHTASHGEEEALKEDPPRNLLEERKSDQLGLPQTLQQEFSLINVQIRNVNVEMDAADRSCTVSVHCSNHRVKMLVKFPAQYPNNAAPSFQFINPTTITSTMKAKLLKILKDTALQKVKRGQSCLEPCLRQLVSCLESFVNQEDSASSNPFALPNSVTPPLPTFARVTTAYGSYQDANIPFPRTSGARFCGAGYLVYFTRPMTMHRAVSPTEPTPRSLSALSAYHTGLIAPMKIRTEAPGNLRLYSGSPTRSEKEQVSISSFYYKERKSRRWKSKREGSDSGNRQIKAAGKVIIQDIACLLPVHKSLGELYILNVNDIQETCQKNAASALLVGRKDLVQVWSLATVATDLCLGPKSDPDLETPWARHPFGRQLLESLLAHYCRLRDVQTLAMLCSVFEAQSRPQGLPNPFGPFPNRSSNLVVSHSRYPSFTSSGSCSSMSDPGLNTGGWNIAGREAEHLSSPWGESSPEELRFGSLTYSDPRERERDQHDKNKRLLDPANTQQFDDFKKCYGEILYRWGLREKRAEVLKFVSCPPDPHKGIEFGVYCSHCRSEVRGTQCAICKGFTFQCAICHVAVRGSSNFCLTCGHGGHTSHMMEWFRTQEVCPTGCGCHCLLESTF
CASTOR1 homodimer-GATOR2 complex, sequence (Q96EE3 whole entry partner): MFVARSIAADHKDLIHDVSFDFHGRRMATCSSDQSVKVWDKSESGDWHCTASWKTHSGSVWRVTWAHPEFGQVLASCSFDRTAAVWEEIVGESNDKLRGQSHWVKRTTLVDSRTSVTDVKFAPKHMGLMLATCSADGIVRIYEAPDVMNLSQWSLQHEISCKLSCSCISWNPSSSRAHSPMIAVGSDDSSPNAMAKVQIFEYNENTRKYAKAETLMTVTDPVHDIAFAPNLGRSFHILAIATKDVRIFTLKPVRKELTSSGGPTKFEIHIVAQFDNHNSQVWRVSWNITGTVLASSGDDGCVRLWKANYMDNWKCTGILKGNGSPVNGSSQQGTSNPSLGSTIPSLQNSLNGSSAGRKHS
CASTOR1 homodimer-GATOR2 complex, sequence (P55735 2-322 partner): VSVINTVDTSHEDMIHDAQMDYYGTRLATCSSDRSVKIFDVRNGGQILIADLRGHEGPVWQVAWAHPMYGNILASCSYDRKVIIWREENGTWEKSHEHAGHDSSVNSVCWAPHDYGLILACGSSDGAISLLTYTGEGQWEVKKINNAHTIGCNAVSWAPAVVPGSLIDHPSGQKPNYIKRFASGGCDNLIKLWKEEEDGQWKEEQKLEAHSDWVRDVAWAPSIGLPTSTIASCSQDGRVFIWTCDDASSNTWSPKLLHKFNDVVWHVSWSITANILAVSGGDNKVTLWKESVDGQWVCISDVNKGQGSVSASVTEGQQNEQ

Compound `N=C(N)NCCC[C@H](N)C(=O)O` [arginine] has an IC50 [1] of 20 to 40 µM and an IC50 [2] of 20 to 40 µM.
